4 compounds from patent publication US7102009B2, “Substituted amine derivatives and methods of use” (Amgen Inc., priority 2001, dated 2006) can be followed below.

Molecules are shown by their SMILES.

For the assay, the system named is Human Umbilical Vein Endothelial cells (VEGF-stimulated HUVEC proliferation). Put plainly: HUVEC Proliferation Assay (VEGF-stimulated). It counts as cell-based. The following applies: VEGF 50 ng/mL, 72 h incubation, CyQuant readout, read-out: inhibited VEGF-stimulated HUVEC proliferation at a level below (IC50). The procedure, abridged: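 Pooled-donor HUVECs (passage 2–3) seeded in DMEM+10% FBS for 22 h, then pre-treated 2–3 h with five-point, five-fold compound dilutions (0.25% DMSO final). Stimulated with 50 ng/mL VEGF (bFGF 20 ng/mL on separate plates) for 72 h at 37 °C. CyQuant fluorescence (485/530 nm) after freeze-thaw; IC50 from 4-parameter fit.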
Regarding `CN1CCC[C@H]1COc1cc(NC(=O)c2cccnc2Nc2ccc3cn[nH]c3c2)ccc1C(F)(F)F` [Example 616, 2-(1H-indazol-6-ylamino)-N-(3-((((2S)-1-methyl-2-pyrrolidinyl)methyl)oxy)-4-(trifluoromethyl)phenyl)-3-pyridinecarboxamide], the IC50 was less than 50 nM.

As for `CC1(C)CN(S(C)(=O)=O)c2cc(NC(=O)c3cccnc3Nc3ccc4cn[nH]c4c3)ccc21` [Example 625, N-(3,3-dimethyl-1-(methylsulfonyl)-2,3-dihydro-1H-indol-6-yl)-2-(1H-indazol-6-ylamino)-3-pyridinecarboxamide], the IC50 is less than 50 nM.

As for `CC1(C)CCNc2cc(NC(=O)c3cccnc3Nc3ccc4c(c3)C(=O)NC4)ccc21` [Example 629, N-(4,4-Dimethyl-1,2,3,4-tetrahydro-isoguinolin-7-yl)-2-(1-oxo-2,3-dihydro-1H-isoindol-4-ylamino)-nicotinamide], the IC50 was less than 50 nM.

For the compound `CC1(C)CN(C(=O)[C@@H]2CCCN2)c2cc(NC(=O)c3cccnc3Nc3ccc4cn[nH]c4c3)ccc21` [Example 631, N-[3,3-Dimethyl-1-(pyrrolidine-2-carbonyl)-2,3-dihydro-1H-indol-6-yl]-2-(1H-indazol-6-ylamino)-nicotinamide], the IC50 was less than 50 nM.
